From patent publication US8765779B2, “Tricyclic derivatives and their pharmaceutical use and compositions” (Cephalon, Inc., priority 2009, dated 2014)

Target: T1, human 5-HT6 receptor (Homo sapiens, UniProt P50406)
T1 construct: host or cells: CHO-K1 cells, stably transfected; membranes prepared in house
Assay: Human 5-HT6 Receptor Binding Assay ([3H]LSD displacement, scintillation beads)
Details: membranes of CHO-K1 cells with recombinant human 5-HT6, 4 nM [3H]LSD; Table 1, class symbols; read-out: h5-HT6 (Ki)

T1 sequence (P50406 whole entry): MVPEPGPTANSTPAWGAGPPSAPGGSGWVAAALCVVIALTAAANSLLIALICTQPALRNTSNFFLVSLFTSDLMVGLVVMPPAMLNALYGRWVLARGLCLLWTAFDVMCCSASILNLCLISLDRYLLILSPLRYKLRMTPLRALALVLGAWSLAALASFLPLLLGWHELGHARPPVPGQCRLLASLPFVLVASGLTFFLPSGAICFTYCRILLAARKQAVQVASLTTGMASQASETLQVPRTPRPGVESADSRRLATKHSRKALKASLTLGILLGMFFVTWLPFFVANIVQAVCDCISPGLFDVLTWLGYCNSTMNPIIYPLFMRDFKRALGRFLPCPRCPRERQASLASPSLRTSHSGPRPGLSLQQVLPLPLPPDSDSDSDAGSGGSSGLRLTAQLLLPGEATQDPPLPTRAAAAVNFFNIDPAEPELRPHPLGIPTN

Row | Compound | Ki
1 | CC(C)Oc1cccc(S(=O)(=O)c2ccc3c(c2)OC2CNCCC32)c1 (centres unmarked) [Example 165] | < 500 nM
2 | O=S(=O)(c1cccc(OC(F)(F)F)c1)c1ccc2c(c1)OC1CNCCC21 (centres unmarked) [Example 166, 7-{[3-(trifluoromethoxy)phenyl]sulfo-nyl}-1,2,3,4,4a,9a-hexahydro[1]benzofuro[2,3-c]pyridine] | < 500 nM
3 | O=S(=O)(c1cccc(C(F)(F)F)c1)c1ccc2c(c1)OC1CNCCC21 (centres unmarked) [Example 167] | < 500 nM
4 | O=S(=O)(c1ccc2c(c1)C1CCNCC1O2)c1cccc2ccccc12 (centres unmarked) [Example 170] | < 500 nM
5 | COc1ccc(S(=O)(=O)c2ccc3c(c2)C2CCNCC2O3)cc1OC (centres unmarked) [Example 171] | > 1000 nM
6 | O=S(=O)(c1ccc(Oc2ccccc2)cc1)c1ccc2c(c1)C1CCNCC1O2 (centres unmarked) [Example 173] | > 1000 nM
7 | Cc1ccc(S(=O)(=O)c2ccc3c(c2)C2CCNCC2O3)cc1 (centres unmarked) [Example 174] | > 1000 nM
8 | O=S(=O)(c1ccc2c(c1)C1CCNCC1O2)c1ccc2ccccc2c1 (centres unmarked) [Example 175] | < 500 nM
9 | O=S(=O)(c1ccc2c(c1)C1CCNCC1O2)c1cccc(Cl)c1Cl (centres unmarked) [Example 176] | < 500 nM
10 | O=[N+]([O-])c1ccc(S(=O)(=O)c2ccc3c(c2)C2CCNCC2O3)cc1 (centres unmarked) [Example 177] | > 1000 nM
11 | CC(C)c1ccc(S(=O)(=O)c2ccc3c(c2)C2CCNCC2O3)cc1 (centres unmarked) [Example 179] | < 500 nM
12 | O=S(=O)(c1ccccc1)c1ccc2c(c1)C1CCNCC1O2 (centres unmarked) [Example 181, 6-(phenylsulfonyl)-1,2,3,4,4a,9a-hexahydro[1]benzofuro[2,3-c]pyridine] | > 1000 nM
13 | O=S(=O)(c1ccccc1Cl)c1cccc2c1OC1CNCCC21 (centres unmarked) [Example 183] | < 500 nM
14 | O=S(=O)(c1cccc2c1OC1CNCCC21)c1cccc2ccccc12 (centres unmarked) [Example 184] | < 500 nM
15 | O=S(=O)(c1ccc2c(c1)OCCO2)c1cccc2c1OC1CNCCC21 (centres unmarked) [Example 185] | < 500 nM
16 | O=S(=O)(c1ccc(Cl)c(Cl)c1)c1cccc2c1OC1CNCCC21 (centres unmarked) [Example 186] | < 500 nM
17 | O=S(=O)(c1ccc2ccccc2c1)c1cccc2c1OC1CNCCC21 (centres unmarked) [Example 189] | < 500 nM
18 | O=[N+]([O-])c1ccc(S(=O)(=O)c2cccc3c2OC2CNCCC32)cc1 (centres unmarked) [Example 190] | > 1000 nM
19 | O=S(=O)(c1ccccc1-c1ccccc1)c1cccc2c1OC1CNCCC21 (centres unmarked) [Example 191] | < 500 nM
20 | CC(C)c1ccc(S(=O)(=O)c2ccc3c4c(oc3c2)CNCC4)cc1 [Example 195] | < 500 nM
21 | O=S(=O)(c1ccc2c3c(oc2c1)CNCC3)c1cccc(Cl)c1Cl [Example 196, 7-[(2,3-dichlorophenyl)sulfonyl]-1,2,3,4-tetrahydro[1]benzofuro[2,3-c]pyridine] | < 500 nM
22 | O=S(=O)(c1ccc(Cl)c(Cl)c1)c1ccc2c3c(oc2c1)CNCC3 [Example 197, 7-[(3,4-dichlorophenyl)sulfonyl]-1,2,3,4-tetrahydro[1]benzofuro[2,3-c]pyridine] | < 500 nM
23 | COc1cccc(S(=O)(=O)c2ccc3c4c(oc3c2)CNCC4)c1 [Example 199] | < 500 nM
24 | O=S(=O)(c1ccc(Oc2ccccc2)cc1)c1ccc2c3c(oc2c1)CNCC3 [Example 201] | < 500 nM
25 | O=S(=O)(c1ccc2c3c(oc2c1)CNCC3)c1cccc2ccccc12 [Example 202] | < 500 nM

Row | Compound | Ki
26 | O=S(=O)(c1ccc(Cl)cc1)c1ccc2c3c(oc2c1)CNCC3 [Example 203] | < 500 nM
27 | Cc1ccc(S(=O)(=O)c2ccc3c4c(oc3c2)CNCC4)cc1 [Example 204] | < 500 nM
28 | O=S(=O)(c1cc(F)cc(Cl)c1)c1ccc2c3c(oc2c1)CNCC3 [Example 207] | < 500 nM
29 | [O-][S+](c1ccc(Cl)c(C(F)(F)F)c1)c1ccc2c3c(oc2c1)CNCC3 (centres unmarked) [Example 209] | < 500 nM
30 | O=S(=O)(c1ccc(Cl)c(C(F)(F)F)c1)c1ccc2c3c(oc2c1)CNCC3 [Example 210] | < 500 nM
31 | O=S(=O)(c1cc(Cl)cc(Cl)c1)c1ccc2c3c(oc2c1)CNCC3 [Example 211, 7-[(3,5-dichlorophenyl)sulfonyl]-1,2,3,4-tetrahydro[1]benzofuro[2,3-c]pyridine] | < 500 nM
32 | O=S(=O)(c1cccc(Br)c1)c1ccc2c3c(oc2c1)CNCC3 [Example 212, 7-[(3-bromophenyl)sulfonyl]-1,2,3,4-tetrahydro[1]benzofuro[2,3-c]pyridine] | < 500 nM
33 | O=S(=O)(c1ccc2c3c(oc2c1)CNCC3)c1cc(Cl)ccc1Cl [Example 215, 7-[(2,5-dichlorophenyl)sulfonyl]-1,2,3,4-tetrahydro[1]benzofuro[2,3-c]pyridine] | < 500 nM
34 | CC(C)Oc1cccc(S(=O)(=O)c2ccc3c4c(oc3c2)CNCC4)c1 [Example 217] | < 500 nM
35 | COC(=O)c1cccc(S(=O)(=O)c2ccc3c4c(oc3c2)CNCC4)c1 [Example 219] | < 500 nM
36 | N#Cc1ccc(S(=O)(=O)c2ccc3c4c(oc3c2)CNCC4)cc1 [Example 220] | < 500 nM
37 | [O-][S+](c1ccc2c3c(oc2c1)CNCC3)c1cc(F)ccc1F (centres unmarked) [Example 222] | < 500 nM
38 | [O-][S+](c1ccc2c3c(oc2c1)CNCC3)c1c(F)c(F)cc(F)c1F (centres unmarked) [Example 224] | < 500 nM
39 | O=S(=O)(c1ccc(OC(F)(F)F)cc1)c1ccc2c3c(oc2c1)CNCC3 [Example 227, 7-{[4-(trifluoromethoxy)phenyl]sulfo-nyl}-1,2,3,4-tetrahydro[1]benzofuro[2,3-c]pyridine] | < 500 nM
40 | [O-][S+](c1ccc2c3c(oc2c1)CNCC3)c1ccccc1Cl (centres unmarked) [Example 229] | < 500 nM
41 | O=S(=O)(c1ccc2c3c(oc2c1)CNCC3)c1ccccc1Cl [Example 230] | < 500 nM
42 | O=S(=O)(c1ccc2c3c(oc2c1)CNCC3)c1ccccc1F [Example 231] | < 500 nM
43 | O=S(=O)(c1ccc2c3c(oc2c1)CNCC3)C1CCCCC1 [Example 233] | > 1000 nM
44 | CC(C)S(=O)(=O)c1ccc2c3c(oc2c1)CNCC3 [Example 234] | > 1000 nM
45 | CC1NCCc2c1oc1cc(S(=O)(=O)c3ccccc3)ccc21 (centres unmarked) [Example 235] | < 500 nM
46 | CC1NCCc2c1oc1cc(S(=O)(=O)c3ccc(F)c(F)c3)ccc21 (centres unmarked) [Example 238] | < 500 nM
47 | O=S(=O)(c1cccc(C(F)(F)F)c1)c1ccc2oc3c(c2c1)CCNC3 [Example 239] | < 500 nM
48 | COc1ccc(S(=O)(=O)c2ccc3oc4c(c3c2)CCNC4)cc1OC [Example 242] | > 1000 nM
49 | O=S(=O)(c1cccc(Cl)c1)c1ccc2oc3c(c2c1)CCNC3 [Example 243] | < 500 nM

Further lines, results first:

Row | Ki | Compound
50 | < 500 nM | O=S(=O)(c1cc(F)cc(F)c1)c1ccc2c(c1)OC1CNCCC21 (centres unmarked) [Example 164]
51 | 500 to 1000 nM | O=S(=O)(c1cccc(F)c1)c1ccc2c(c1)C1CCNCC1O2 (centres unmarked) [Example 168]
52 | 500 to 1000 nM | O=S(=O)(c1ccc2c(c1)C1CCNCC1O2)c1ccccc1Cl (centres unmarked) [Example 169]
53 | < 500 nM | O=S(=O)(c1ccc(Cl)c(Cl)c1)c1ccc2c(c1)C1CCNCC1O2 (centres unmarked) [Example 172]
54 | < 500 nM | COc1cccc(S(=O)(=O)c2ccc3c(c2)C2CCNCC2O3)c1 (centres unmarked) [Example 178]
55 | > 1000 nM | O=S(=O)(c1ccc2c(c1)OCCO2)c1ccc2c(c1)C1CCNCC1O2 (centres unmarked) [Example 180]
56 | < 500 nM | COc1cccc(S(=O)(=O)c2cccc3c2OC2CNCCC32)c1 (centres unmarked) [Example 182]
57 | 500 to 1000 nM | COc1ccc(S(=O)(=O)c2cccc3c2OC2CNCCC32)cc1 (centres unmarked) [Example 187]
58 | < 500 nM | O=S(=O)(c1ccc(Cl)cc1)c1cccc2c1OC1CNCCC21 (centres unmarked) [Example 188]
59 | < 500 nM | O=S(=O)(c1cccc(C(F)(F)F)c1)c1ccc2c3c(oc2c1)CNCC3 [Example 192]
60 | < 500 nM | O=S(=O)(c1ccc(F)c(Cl)c1)c1ccc2c3c(oc2c1)CNCC3 [Example 193]
61 | < 500 nM | COc1ccc(S(=O)(=O)c2ccc3c4c(oc3c2)CNCC4)cc1F [Example 194]
62 | < 500 nM | COc1ccc(S(=O)(=O)c2ccc3c4c(oc3c2)CNCC4)cc1 [Example 198]
63 | < 500 nM | O=S(=O)(c1ccc2c(c1)OCCO2)c1ccc2c3c(oc2c1)CNCC3 [Example 200]
64 | < 500 nM | O=[N+]([O-])c1ccc(S(=O)(=O)c2ccc3c4c(oc3c2)CNCC4)cc1 [Example 205]
65 | < 500 nM | Cc1ccc(F)cc1S(=O)(=O)c1ccc2c3c(oc2c1)CNCC3 [Example 206]

Row | Ki | Compound
66 | < 500 nM | O=S(=O)(c1ccc(F)cc1)c1ccc2c3c(oc2c1)CNCC3 [Example 213]
67 | < 500 nM | [O-][S+](c1ccc2c3c(oc2c1)CNCC3)c1cc(Cl)ccc1Cl (centres unmarked) [Example 214]
68 | < 500 nM | CC(C)Oc1cccc([S+]([O-])c2ccc3c4c(oc3c2)CNCC4)c1 (centres unmarked) [Example 216]
69 | < 500 nM | Cc1cc(S(=O)(=O)c2ccc3c4c(oc3c2)CNCC4)ccc1F [Example 218]
70 | < 500 nM | Cc1cccc(S(=O)(=O)c2ccc3c4c(oc3c2)CNCC4)c1 [Example 221]
71 | < 500 nM | O=S(=O)(c1ccc2c3c(oc2c1)CNCC3)c1cc(F)ccc1F [Example 223]
72 | < 500 nM | O=S(=O)(c1ccc2c3c(oc2c1)CNCC3)c1c(F)c(F)cc(F)c1F [Example 225]
73 | > 1000 nM | [O-][S+](c1ccc(OC(F)(F)F)cc1)c1ccc2c3c(oc2c1)CNCC3 (centres unmarked) [Example 226, 7-{[4-(trifluoromethoxy)phenyl]sulfi-nyl}-1,2,3,4-tetrahydro[1]benzofuro[2,3-c]pyridine]
74 | 500 to 1000 nM | O=S(=O)(c1ccc(-c2ccccc2)cc1)c1ccc2c3c(oc2c1)CNCC3 [Example 228]
75 | < 500 nM | O=S(=O)(c1ccc2c3c(oc2c1)CNCC3)c1ccccc1-c1ccccc1 [Example 232]
76 | < 500 nM | COc1ccc(S(=O)(=O)c2ccc3c4c(oc3c2)C(C)NCC4)cc1F (centres unmarked) [Example 236]
77 | < 500 nM | CC1NCCc2c1oc1cc(S(=O)(=O)c3cccc(C(F)(F)F)c3)ccc21 (centres unmarked) [Example 237]
78 | < 500 nM | O=S(=O)(c1ccc(F)c(F)c1)c1ccc2oc3c(c2c1)CCNC3 [Example 240]
79 | < 500 nM | COc1ccc(S(=O)(=O)c2ccc3oc4c(c3c2)CCNC4)cc1F [Example 241]
80 | < 500 nM | O=S(=O)(c1cccc(F)c1)c1ccc2oc3c(c2c1)CCNC3 [Example 244, 6-[(3-fluorophenyl)sulfonyl]-1,2,3,4-tetrahydro[1]benzofuro[2,3-c]pyridine]
